Common to all, as to format: in vivo
In data set [1] the test system is Digitaria ciliaris. Briefly: Weed foliar treatment test. The following applies: foliar spray at 1.0 to 2.0 leaf stage of Digitaria ciliaris, 3 weeks. As to the method: (§1) 3. Weed Foliar Treatment Test
(§2) Soil was filled into a 1/6000 are pot followed by seeding with Digitaria ciliaris, Chenopodium album and Amaranthus retroflexus, covering with soil, and cultivating in a glass greenhouse at an average atmospheric temperature of 25° C.
(§3) Wettable powder of Target Compound (I) shown in Table 1 prepared in compliance with the preparation examples were diluted with water to the prescribed amount of chemical and uniformly sprayed onto the weeds using 15 liters of sprayed water per are when Digitaria ciliaris had grown to the 1.0 to 2.0 leaf stage.
(§4) After treating for 3 weeks in a glass greenhouse at an average atmospheric temperature of 25° C., the herbicidal efficacy thereof was investigated.
(§5) Evaluation of herbicidal efficacy was carried out in the same manner as the above-mentioned Test Example 1.

Data set [2] concerns Amaranthus retroflexus. Briefly: Weed foliar treatment test. The following applies: foliar spray, 3 weeks. As to the method: as §1, §2, §3, §4, §5
In data set [3] the test system is Chenopodium album. Briefly: Weed foliar treatment test. The following applies: foliar spray, 3 weeks. As to the method: as §1, §2, §3, §4, §5
The subject of data set [4] is Digitaria ciliaris. Briefly: Farming soil treatment test. As to conditions: soil surface spray prior to weed growth, 30 days. As to the method: (§6) 2. Farming Soil Treatment Test
(§7) Field soil was filled into a 1/6000 are pot followed by seeding with Digitaria ciliaris, Chenopodium album and Amaranthus retroflexus and covering with soil.
(§8) Wettable powder of compounds of formula (D shown in Table 1 prepared in compliance with the preparation examples were diluted with water to the prescribed amount of chemical and uniformly sprayed onto each soil surface layer using 10 liters of sprayed water per are prior to weed growth following seeding.
(§9) After treating for 30 days in a glass greenhouse at an average atmospheric temperature of 30° C., the herbicidal efficacy thereof was investigated.
as §5

Data set [5] has as its system Amaranthus retroflexus. Briefly: Farming soil treatment test. As to conditions: soil surface spray prior to weed growth, 30 days. As to the method: as §6, §7, §8, §9, §5
Data set [6] relates to Chenopodium album. Briefly: Farming soil treatment test. The following applies: soil surface spray prior to weed growth, 30 days. As to the method: as §6, §7, §8, §9, §5
For the next data set, the system named is Echinochloa crus-galli. Briefly: Paddy herbicidal activity test. The following applies: irrigated paddy pot, treated at 3.5 leaf stage of Echinochloa crus-galli, 30 days. As to the method:
(§10) 1. Paddy Herbicidal Activity Test
(§11) Rice paddy soil was filled into a 1/10000 are pot followed by the addition of suitable amounts of water and chemical fertilizer, kneading, seeding with Echinochloa crus-galli, Monochoria vaginalis and Scirpus juncoides and maintaining in an irrigated state at a water depth of 3 cm.
(§12) Wettable powder of Target Compound (I) shown in Table 1 prepared in compliance with the preparation examples were diluted with a suitable amount of water, rice plants in the 2.0 leaf stage were transplanted during 3.5 leaf stage of Echinochloa crus-galli, and treated by dropping in chemical in the prescribed amount per are using a pipette.
as §9
(§13) Evaluation of herbicidal efficacy was carried out by comparing growth inhibition rate (%) with an untreated group, while evaluation of phytotoxicity was carried out by comparing growth inhibition rate (%) with the state of a complete eradication group, and were evaluated at 11 levels indicated below.

For a further data set, the system named is Monochoria vaginalis. Briefly: Paddy herbicidal activity test. The following applies: irrigated paddy pot, 30 days. As to the method: as §10, §11, §12, §9, §13
The next data set deals with Scirpus juncoides. Briefly: Paddy herbicidal activity test. The following applies: irrigated paddy pot, 30 days. As to the method: as §10, §11, §12, §9, §13
Another data set concerns Rice plants. Briefly: Paddy herbicidal activity test, phytotoxicity to transplanted rice. The following applies: rice transplanted in 2.0 leaf stage, 30 days. As to the method:
as §10, §11, §12, §9, §13

In the case of `N#Cc1cnn(-c2nn3c(c2Br)CCCC3)c1N(CCCl)C(=O)C(F)(F)F` [Compound 16], the “herbicidal efficacy (growth inhibition rate level) Digitaria ciliaris” value in the data set with Digitaria ciliaris [1] (5g a.i./10a), in the data set with Digitaria ciliaris [1] (10g a.i./10a), in the data set with Digitaria ciliaris [4] (5g a.i./10a) and in the data set on Digitaria ciliaris [4] (10g a.i./10a) was 10 (100%) throughout. Moreover, the “herbicidal efficacy (growth inhibition rate level) Amaranthus retroflexus” value in the data set with Amaranthus retroflexus [2] (5g a.i./10a), in the data set on Amaranthus retroflexus [2] (10g a.i./10a), in the data set on Amaranthus retroflexus [5] (5g a.i./10a) and in the data set with Amaranthus retroflexus [5] (10g a.i./10a) was 10 (100%) throughout. Also, the “herbicidal efficacy (growth inhibition rate level) Chenopodium album” value in the data set on Chenopodium album [3] (5g a.i./10a), in the data set on Chenopodium album [3] (10g a.i./10a), in the data set with Chenopodium album [6] (5g a.i./10a) and in the data set on Chenopodium album [6] (10g a.i./10a) was 10 (100%) throughout. For the same molecule, the figures for the “herbicidal efficacy (growth inhibition rate level) Echinochloa crus-galli” value in the data set with Echinochloa crus-galli (1g a.i./10a) and with Echinochloa crus-galli (5g a.i./10a) were 9 (90% to less than 100%) and 10 (100%), respectively. In addition, the “herbicidal efficacy (growth inhibition rate level) Monochoria vaginalis” value in the data set with Monochoria vaginalis (1g a.i./10a) was 7 (70% to less than 80%); in the data set on Monochoria vaginalis (5g a.i./10a), 8 (80% to less than 90%). Further, the “herbicidal efficacy (growth inhibition rate level) Scirpus juncoides” value with Scirpus juncoides (1g a.i./10a) is listed as 8 (80% to less than 90%); in the data set with Scirpus juncoides (5g a.i./10a) it was 9 (90% to less than 100%). Further, the “phytotoxicity (growth inhibition rate level) Rice plants” value in the data set with Rice plants (1g a.i./10a) was 0 (0 (exponent): 0% to less than 10% (growth inhibition rate)); with Rice plants (5g a.i./10a), 1 (10% to less than 20%).
As for `COCCN(C(=O)C(F)(F)F)c1c([N+](=O)[O-])cnn1-c1nn2c(c1Cl)CCCC2` [Compound 20], the “herbicidal efficacy (growth inhibition rate level) Digitaria ciliaris” value in the data set with Digitaria ciliaris [1] (5g a.i./10a), in the data set on Digitaria ciliaris [1] (10g a.i./10a), in the data set on Digitaria ciliaris [4] (5g a.i./10a) and with Digitaria ciliaris [4] (10g a.i./10a) was 10 (100%) in each case. The “herbicidal efficacy (growth inhibition rate level) Amaranthus retroflexus” value in the data set with Amaranthus retroflexus [2] (5g a.i./10a), in the data set with Amaranthus retroflexus [2] (10g a.i./10a), in the data set with Amaranthus retroflexus [5] (5g a.i./10a) and with Amaranthus retroflexus [5] (10g a.i./10a) was 10 (100%) each time. The “herbicidal efficacy (growth inhibition rate level) Chenopodium album” value in the data set on Chenopodium album [3] (5g a.i./10a), in the data set with Chenopodium album [3] (10g a.i./10a), with Chenopodium album [6] (5g a.i./10a) and in the data set on Chenopodium album [6] (10g a.i./10a) was 10 (100%) in each case. The “herbicidal efficacy (growth inhibition rate level) Echinochloa crus-galli” value is listed as 9 (90% to less than 100%) in the data set on Echinochloa crus-galli (1g a.i./10a) and 10 (100%) in the data set with Echinochloa crus-galli (5g a.i./10a). Also, the “herbicidal efficacy (growth inhibition rate level) Monochoria vaginalis” value in the data set on Monochoria vaginalis (1g a.i./10a) and in the data set on Monochoria vaginalis (5g a.i./10a) was 9 (90% to less than 100%) in each case. Further, the “herbicidal efficacy (growth inhibition rate level) Scirpus juncoides” value in the data set on Scirpus juncoides (1g a.i./10a) was 9 (90% to less than 100%); in the data set on Scirpus juncoides (5g a.i./10a) it was 10 (100%). The “phytotoxicity (growth inhibition rate level) Rice plants” value in the data set with Rice plants (1g a.i./10a) and with Rice plants (5g a.i./10a) was 1 (10% to less than 20%) in each case.
`COCCN(C(=O)C(F)(F)F)c1c([N+](=O)[O-])cnn1-c1nn2c(c1Br)CCCC2` [Compound 23]: the “herbicidal efficacy (growth inhibition rate level) Echinochloa crus-galli” value is recorded as 7 (70% to less than 80%) in the data set with Echinochloa crus-galli (1g a.i./10a) and 8 (80% to less than 90%) in the data set with Echinochloa crus-galli (5g a.i./10a). For the same molecule, the “herbicidal efficacy (growth inhibition rate level) Monochoria vaginalis” value in the data set with Monochoria vaginalis (1g a.i./10a) and in the data set with Monochoria vaginalis (5g a.i./10a) was 8 (80% to less than 90%) throughout. Also, the “herbicidal efficacy (growth inhibition rate level) Scirpus juncoides” value with Scirpus juncoides (1g a.i./10a) and in the data set on Scirpus juncoides (5g a.i./10a) was 8 (80% to less than 90%) in each case. Moreover, the “phytotoxicity (growth inhibition rate level) Rice plants” value in the data set on Rice plants (1g a.i./10a) and in the data set with Rice plants (5g a.i./10a) was 0 (0 (exponent): 0% to less than 10% (growth inhibition rate)) in each case.
For the molecule `COCCNc1c(C#N)cnn1-c1nn2c(c1Cl)CCCC2` [Control agent 4.63], the “herbicidal efficacy (growth inhibition rate level) Digitaria ciliaris” value was 2 (20% to less than 30%) in the data set with Digitaria ciliaris [1] (5g a.i./10a), 4 (40% to less than 50%) in the data set with Digitaria ciliaris [1] (10g a.i./10a), 3 (30% to less than 40%) in the data set with Digitaria ciliaris [4] (5g a.i./10a) and 3 (30% to less than 40%) in the data set on Digitaria ciliaris [4] (10g a.i./10a). For the same molecule, the “herbicidal efficacy (growth inhibition rate level) Amaranthus retroflexus” value in the data set on Amaranthus retroflexus [2] (5g a.i./10a) is 3 (30% to less than 40%); with Amaranthus retroflexus [2] (10g a.i./10a) it was 6 (60% to less than 70%); with Amaranthus retroflexus [5] (5g a.i./10a) it was 4 (40% to less than 50%); in the data set on Amaranthus retroflexus [5] (10g a.i./10a), 5 (50% to less than 60%). The “herbicidal efficacy (growth inhibition rate level) Chenopodium album” value in the data set on Chenopodium album [3] (5g a.i./10a) was 3 (30% to less than 40%); in the data set on Chenopodium album [3] (10g a.i./10a), 5 (50% to less than 60%); with Chenopodium album [6] (5g a.i./10a) it was 4 (40% to less than 50%); with Chenopodium album [6] (10g a.i./10a), 5 (50% to less than 60%). For the same molecule, the “herbicidal efficacy (growth inhibition rate level) Echinochloa crus-galli” value is listed as 2 (20% to less than 30%) with Echinochloa crus-galli (1g a.i./10a) and 3 (30% to less than 40%) in the data set with Echinochloa crus-galli (5g a.i./10a). Also, the “herbicidal efficacy (growth inhibition rate level) Monochoria vaginalis” value in the data set with Monochoria vaginalis (1g a.i./10a) is 1 (10% to less than 20%); with Monochoria vaginalis (5g a.i./10a), 2 (20% to less than 30%). Moreover, the “herbicidal efficacy (growth inhibition rate level) Scirpus juncoides” value is given as 1 (10% to less than 20%) with Scirpus juncoides (1g a.i./10a) and 2 (20% to less than 30%) in the data set with Scirpus juncoides (5g a.i./10a). Further, the “phytotoxicity (growth inhibition rate level) Rice plants” value is given as 0 (0 (exponent): 0% to less than 10% (growth inhibition rate)) in the data set with Rice plants (1g a.i./10a) and 1 (10% to less than 20%) with Rice plants (5g a.i./10a).

The record behind these values is US9518061B2, “Substituted pyrazolylpyrazole derivative and use of same as herbicide” (KYOYU AGRI CO., LTD., priority 2013, dated 2016).
